Measured values published in US20260199325A1, “NOVEL SUBSTITUTED PYRAZINE-CARBOXAMIDE-IMIDAZOPYRIDINE DERIVATIVES” (Boehringer Ingelheim International GmbH, priority 2022, published 2026).

Target: T1, human metabotropic Glutamate 4 receptor (Homo sapiens, UniProt Q14833)
T1 construct: expressed in transfected cells; host or cells: HEK293
Experiment: In vitro testing of mGluR4 potency (Assay A), cAMP HTRF in HEK293 cells
Format: cell-based
Conditions: Table 2; HEK293 cell overexpressing human mGluR4; 10 uM L-Glutamic acid, 1 uM forskolin
Protocol: A. In Vitro Testing of mGluR4 Potency
The in vitro activity of the compounds according to the invention may be investigated as follows:
The HEK293 cell overexpressing the human metabotropic Glutamate 4 receptor were thawed at 37° C. and immediately diluted with cell culture medium. After centrifugation, the cell pellet is re-suspended in medium and then distributed from a stirred spinner flask into the wells of the assay plate. The plates are incubated for one hour at room temperature before they are incubated for 24 hours at 37° C./5% C02. After washing the cells in the plate three times with 80 uL HBSS/HEPES buffer (10 uL buffer remained in the wells after washing), 5 uL per well of compounds diluted in HBSS/HEPES buffer containing 0.2% BSA (final concentration: 0.1%) and 1 mM IBMX (final concentration: 0.5 mM) are added to the wells of the assay plate. Thereafter 5 uL per well of L-Glutamic acid (final concentration: 10 uM), forskolin (final concentration: 1 uM) and 1 mM IBMX (final concentration: 0.5 mM) dissolved in HBSS/HEPES buffer containing 0.2% BSA (final concentration: 0.1%) are added to the assay plate (final DMSO concentration: 1%). Several wells of the assay plate are used either for the positive and the negative controls or for the cAMP standard curve. The assay plate is incubated for 30 minutes at room temperature. Then 5 ul per well of Anti-cAMP-Antibody-d2 solution and 5 ul per well of cAMP-Europium Cryptate dilution are added to all wells of the plate and the plate is incubated another 60 minutes light protected at room temperature. The emission at 615 nm and 665 nm (Excitation wavelength: 320 nm) are measured on the EnVision™ reader (PerkinElmer). The ratio between the emission at 665 nm and 615 is calculated by the reader. The whole assay is performed in the dark or under green light.
The cAMP standard is prepared by diluting the cAMP stock solution with HBSS/Hepes buffer: 5 μl/well of the cAMP dilutions (in HBSS/Hepes buffer containing 1 mM IBMX and 0.2% BSA-final concentration: 0.5 mM IBMX and 0.1% BSA) are added to 10 ul/well HBSS/Hepes buffer plus 5 ul/well 4% DMSO in HBSS/Hepes containing 0.2% BSA (final DMSO concentration: 1%-like in the wells containing compounds) in the wells of the assay plate. The final cAMP concentrations in the assay plate were: 0, 0.17, 0.69, 2.78, 11.1, 44.5, 178, and 712 nM (two wells/cAMP concentration).
Each assay microtiter plate contained also wells with vehicle controls instead of compound as controls for L-Glutamic acid induced signal (negative control; 100% CTL; 10 uM L-Glutamic acid+1 uM forskolin+0.5 mM IBMX+1% DMSO) and wells with vehicle controls without L-Glutamic acid as controls for non-specific changes in signal (positive control; 0% CTL; 0 uM L-Glutamic acid+1 uM forskolin+0.5 mM IBMX+1% DMSO).
The analysis of the data is performed by the calculation the ratio between the emission at 665 nm and the emission at 615 nm (Em665/Em615 ratio). Thereafter the signals of the compounds are normalized using the positive and negative controls by the following formula:
PoC=100×((Signal Sample−Positive Control)/(Negative Control−Positive Control))

T1 sequence (Q14833 33-912): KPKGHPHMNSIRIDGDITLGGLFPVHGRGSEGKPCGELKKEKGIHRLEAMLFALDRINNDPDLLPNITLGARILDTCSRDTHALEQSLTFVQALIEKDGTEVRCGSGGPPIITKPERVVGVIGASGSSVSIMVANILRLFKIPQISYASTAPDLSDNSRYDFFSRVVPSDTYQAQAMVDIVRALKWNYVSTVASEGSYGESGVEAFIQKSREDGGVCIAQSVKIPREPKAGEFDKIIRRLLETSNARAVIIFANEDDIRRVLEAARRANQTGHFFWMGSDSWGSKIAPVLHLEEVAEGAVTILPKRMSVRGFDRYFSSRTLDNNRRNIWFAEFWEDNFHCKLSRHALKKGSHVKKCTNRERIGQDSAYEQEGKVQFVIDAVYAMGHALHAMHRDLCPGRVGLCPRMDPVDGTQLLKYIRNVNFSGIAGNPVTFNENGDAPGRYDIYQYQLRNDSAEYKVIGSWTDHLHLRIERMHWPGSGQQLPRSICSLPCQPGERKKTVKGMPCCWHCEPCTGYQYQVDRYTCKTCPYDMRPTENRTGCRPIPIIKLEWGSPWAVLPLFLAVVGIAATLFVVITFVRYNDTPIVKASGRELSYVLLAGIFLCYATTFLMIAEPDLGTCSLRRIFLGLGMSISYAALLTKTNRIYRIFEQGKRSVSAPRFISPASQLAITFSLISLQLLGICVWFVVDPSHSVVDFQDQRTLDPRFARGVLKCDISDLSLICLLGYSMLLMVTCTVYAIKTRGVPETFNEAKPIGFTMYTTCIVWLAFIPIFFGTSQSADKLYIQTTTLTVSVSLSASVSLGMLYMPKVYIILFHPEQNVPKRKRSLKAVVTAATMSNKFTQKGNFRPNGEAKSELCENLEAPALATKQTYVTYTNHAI

IC50 [nM] | Compound
12 | Cc1cnc(C(=O)N[C@H](c2nc3cc(Cl)cnc3n2C(C)C)C2(O)CCC2)cn1 [Example 25, N-[(R)-[6-chloro-3-(propan-2-yl)-3H-imidazo[4,5-b]pyridin-2-yl](1-hydroxycyclobutyl)methyl]-5-methylpyrazine-2-carboxamide]
13 | Cc1c(C#N)cnc2c1nc([C@@H](NC(=O)c1cnc(C(F)F)cn1)C1(O)CCC1)n2C(C)C [Example 26, N-[(R)-[6-cyano-7-methyl-3-(propan-2-yl)-3H-imidazo[4,5-b]pyridin-2-yl](1-hydroxycyclobutyl)methyl]-5-(difluoromethyl)pyridazine-2-carboxamide]
31 | CC(C)n1c([C@@H](NC(=O)c2cnc(C(F)F)cn2)C2CC2)nc2cc(C(F)(F)F)ncc21 [Example 27, N-[(S)-cyclopropyl[3-(propan-2-yl)-6-(trifluoromethyl)-3H-imidazo[4,5-c]pyridin-2-yl]methyl]-5-(difluoromethyl)pyrazine-2-carboxamide]
6 | Cc1cnc(C(=O)N[C@H](c2nc3c(C)c(C#N)cnc3n2C(C)C)C2CC2)cn1 [Example 28, N-[(S)-[6-cyano-7-methyl-3-(propan-2-yl)-3H-imidazo[4,5-b]pyridin-2-yl](cyclopropyl)methyl]-5-methylpyrazine-2-carboxamide]
14 | CC(C)n1c([C@@H](NC(=O)c2cnc(C(F)F)cn2)C2CCC2)nc2cc(C#N)cnc21 [Example 30, N-[(S)-[6-cyano-3-(propan-2-yl)-3H-imidazo[4,5-b]pyridin-2-yl](cyclobutyl)methyl]-5-(difluoromethyl)pyrazine-2-carboxamide]
14 | COc1c(C#N)cnc2c1nc([C@@H](NC(=O)c1cnc(C)cn1)C1CC1)n2C(C)C [Example 31]
15 | CC(C)n1c([C@@H](NC(=O)c2cnc(C(F)F)cn2)C2CC2)nc2cc(F)cnc21 [Example 32, N-[(S)-cyclopropyl[6-fluoro-3-(propan-2-yl)-3H-imidazo[4,5-b]pyridin-2-yl]methyl]-5-(difluoromethyl)pyrazine-2-carboxamide]
15 | Cc1cnc(C(=O)N[C@@H](CC2CC2)c2nc3cc(C#N)c(C)nc3n2C(C)C)cn1 [Example 33, N-[(1S)-1-[6-cyano-5-methyl-3-(propan-2-yl)-3H-imidazo[4,5-b]pyridin-2-yl]-2-cyclopropylethyl]-5-methylpyrazine-2-carboxamide]
16 | Cc1cnc(C(=O)N[C@H](c2nc3cc(Cl)cnc3n2C(C)C)[C@H]2CCCO2)cn1 [Example 34, N-[(R)-[6-chloro-3-(propan-2-yl)-3H-imidazo[4,5-b]pyridin-2-yl][(2R)-oxolan-2-yl]methyl]-5-methylpyrazine-2-carboxamide]
18 | O=C(N[C@H](c1nc2cc(C(F)(F)F)ncc2n1CC(F)F)C1CC1)c1cnc(C(F)F)cn1 [Example 35, N-[(S)-cyclopropyl[3-(2,2-difluoroethyl)-6-(trifluoromethyl)-3H-imidazo[4,5-c]pyridin-2-yl]methyl]-5-(difluoromethyl)pyrazine-2-carboxamide]
18 | Cc1c(C#N)cnc2c1nc([C@@H](NC(=O)c1cnc(C(F)F)cn1)[C@@H]1CCCO1)n2C(C)C [Example 36, N-[(R)-[6-cyano-7-methyl-3-(propan-2-yl)-3H-imidazo[4,5-b]pyridin-2-yl][(2S)-oxolan-2-yl]methyl]-5-(difluoromethyl)pyrazine-2-carboxamide]
19 | COC(C)(C)[C@H](NC(=O)c1cnc(C)cn1)c1nc2cccnc2n1C(C)C [Example 37, N-[(1R)-2-methoxy-2-methyl-1-[3-(propan-2-yl)-3H-imidazo[4,5-b]pyridin-2-yl]propyl]-5-methylpyrazine-2-carboxamide]
19 | Cc1cnc(C(=O)N[C@@H](C[C@@H]2CCCO2)c2nc3c(C)c(C#N)cnc3n2C(C)C)cn1 [Example 38, N-[(1S)-1-[6-cyano-7-methyl-3-(propan-2-yl)-3H-imidazo[4,5-b]pyridin-2-yl]-2-[(2S)-oxolan-2-yl]ethyl]-5-methylpyrazine-2-carboxamide]
21 | Cc1cnc(C(=O)N[C@H](c2nc3c(C)nc(C(F)(F)F)cc3n2CC(F)F)C2CC2)cn1 [Example 39, N-[(S)-cyclopropyl[1-(2,2-difluoroethyl)-4-methyl-6-(trifluoromethyl)-1H-imidazo[4,5-c]pyridin-2-yl]methyl]-5-methylpyrazine-2-carboxamide]
21 | Cc1cnc(C(=O)N[C@H](c2nc3c(C)c(C#N)cnc3n2C(C)C)[C@H]2CCCO2)cn1 [Example 40, N-[(R)-[6-cyano-7-methyl-3-(propan-2-yl)-3H-imidazo[4,5-b]pyridin-2-yl][(2R)-oxolan-2-yl]methyl]-5-methylpyrazine-2-carboxamide]
21 | Cc1cnc(C(=O)N[C@H](c2nc3cc(Cl)cnc3n2C(C)C)[C@@H]2CCCO2)cn1 [Example 41, N-[(R)-[6-chloro-3-(propan-2-yl)-3H-imidazo[4,5-b]pyridin-2-yl][(2S)-oxolan-2-yl]methyl]-5-methylpyrazine-2-carboxamide]
21 | CO[C@H](C)[C@H](NC(=O)c1cnc(C)cn1)c1nc2c(C)c(C#N)cnc2n1C(C)C [Example 42, N-[(1R,2R)-1-[6-cyano-7-methyl-3-(propan-2-yl)-3H-imidazo[4,5-b]pyridin-2-yl]-2-methoxypropyl]-5-methylpyrazine-2-carboxamide]
24 | Cc1cnc(C(=O)N[C@H](c2nc3cnc(C(F)(F)F)cc3n2C(C)C)C2CC2)cn1 [Example 43, N-[(S)-cyclopropyl[1-(propan-2-yl)-6-(trifluoromethyl)-1H-imidazo[4,5-c]pyridin-2-yl]methyl]-5-methylpyrazine-2-carboxamide]
26 | Cc1cnc(C(=O)N[C@H](c2nc3cc(F)cnc3n2C(C)C)C2CC2)cn1 [Example 44, N-[(S)-cyclopropyl[6-fluoro-3-(propan-2-yl)-3H-imidazo[4,5-b]pyridin-2-yl]methyl]-5-methylpyrazine-2-carboxamide]
33 | CCn1c([C@@H](NC(=O)c2cnc(C)cn2)C2CC2)nc2c(C)nc(C(F)(F)F)cc21 [Example 45, N-[(S)-cyclopropyl[1-ethyl-4-methyl-6-(trifluoromethyl)-1H-imidazo[4,5-c]pyridin-2-yl]methyl]-5-methylpyrazine-2-carboxamide]
41 | O=C(N[C@H](c1nc2cnc(C(F)(F)F)cc2n1CC(F)F)C1CC1)c1cnc(C(F)F)cn1 [Example 46, N-[(S)-cyclopropyl[1-(2,2-difluoroethyl)-6-(trifluoromethyl)-1H-imidazo[4,5-c]pyridin-2-yl]methyl]-5-(difluoromethyl)pyrazine-2-carboxamide]
41 | CCn1c([C@@H](NC(=O)c2cnc(C)cn2)C2CC2)nc2cc(C(F)(F)F)ncc21 [Example 47, N-[(S)-cyclopropyl[3-ethyl-6-(trifluoromethyl)-3H-imidazo[4,5-c]pyridin-2-yl]methyl]-5-methylpyrazine-2-carboxamide]
48 | CCn1c([C@@H](NC(=O)c2cnc(C(F)F)cn2)C2CC2)nc2cc(C(F)(F)F)ncc21 [Example 48, N-[(S)-cyclopropyl[3-ethyl-6-(trifluoromethyl)-3H-imidazo[4,5-c]pyridin-2-yl]methyl]-5-(difluoromethyl)pyrazine-2-carboxamide]
